The text below walks through data of PMC4698714, “Allosteric effects of chromophore interaction with dimeric near-infrared fluorescent proteins engineered from bacterial phytochromes” (Scientific Reports, 2016).

The target in the assay is T1, iRFP713 (Rhodopseudomonas palustris, UniProt G1FNL7, C15S).
T1 construct: gene iRFP; N-terminal polyhistidine tag; E. coli LMG194 with heme oxygenase; dimer
Kind of assay: zinc-staining SDS-PAGE, absorption/fluorescence spectra, GdnHCl unfolding. Conditions: noncovalent; GAF pocket; no BV-binding Cys.

Consider `C=CC1=C(C)C(=Cc2[nH]c(C=C3N=C(C=C4NC(=O)C(C)=C4C=C)C(C)=C3CCC(=O)O)c(CCC(=O)O)c2C)NC1=O` [biliverdin IXα], for which the “zinc-staining SDS-PAGE, absorption/fluorescence spectra, GdnHCl unfolding” value is “BV was the most weakly associated with NIR FP variants having no Cys residues”.
